Experimental data as given in US6806285B1, “5-Hydroxyl indole derivatives for treating glaucoma” (Alcon, Inc., priority 2000, dated 2004).

Experiments:
[1] = Solution stability, accelerated stress test; format: physicochemical; conditions: 14 days; for Predicted Shelf Life: 25° C., loss of 10% compound (T90), extrapolated from 75° C., pH 5 0.025 M sodium citrate buffer, HPLC
Procedure: The solution stability of the example compounds were assessed using an accelerated stress test. The compound was dissolved in pH 5, 0.025 M sodium citrate buffer (5˜15 μg/mL). In duplicate, 2 mL of each solution in a glass vial was heated at 75° C. for 14 days. Samples were analyzed periodically using HPLC and % degradation was calculated for the sample. The predicted shelf life (25° C.) was based on the loss of 10% compound (T90) and the fact that the rate of degradation for a first order reaction decreased 50% for every 10° C. drop in temperature.

[2] = test system: hypertensive cynomolgus monkeys; conditions: dose 250 μg, cited from earlier work

| SMILES | Predicted Shelf Life [1] [months] | Stability relative to the parent compound α-methylserotonin (oxidative degradation and ester hydrolysis) ([1]; stress conditions: pH 5 citrate buffer, 75° C.) | Percent IOP Reduction ± SEM, 1 hour after dose [2] [%] | Percent IOP Reduction ± SEM, 3 hours after dose [2] [%] | Percent IOP Reduction ± SEM, 6 hours after dose [2] [%] |
| --- | --- | --- | --- | --- | --- |
| CCC(=O)Oc1ccc2[nH]cc(CC(C)N)c2c1 (stereo not drawn) [Example 1, Propionic acid 3-(2-aminopropyl)1H-indol-5-yl ester] | 1.32 | did not provide an increase in the stability of the parent compound |  |  |  |
| CC(N)Cc1c[nH]c2ccc(OC(=O)C(C)C)cc12 (stereo not drawn) [Example 2, Isobutyric acid 3-(2-aminopropyl)-1H-indol-5yl ester] | 3.36 |  |  |  |  |
| CC(N)Cc1c[nH]c2ccc(OC(=O)C(C)(C)C)cc12 (stereo not drawn) [Example 3, 2,2-Dimethyl-propionic acid 3-(2-aminopropyl)-1H-indol-5yl ester] | 11.3 |  |  |  |  |
| CC(N)Cc1c[nH]c2ccc(OC(=O)C3CC3)cc12 (stereo not drawn) [Example 4, Cyclopropanecarboxylic acid 3-(2-aminopropyl)-1H-indol-5yl ester] | 5.81 |  |  |  |  |
| NCCc1c[nH]c2ccc(O)cc12 [Serotonin] |  |  | 13.3 ± 5.31 | 18.0 ± 5.12 | 2.0 ± 7.39 |
| CC(N)Cc1c[nH]c2ccc(O)cc12 (stereo not drawn) [α-methylserotonin, 3-(2-aminopropyl)-1H-indol-5-ol] | 2.6 |  | 14.2 ± 4.39 | 25.8 ± 5.16 | 30.8 ± 7.72 |
